In patent publication US20100010025A1, “Pyrimidine Derivatives” (Norvartis AG, priority 2006, published 2010):

Key:
JAK-3 = target: T1, JAK-3 (Homo sapiens, UniProt P52333); assay: JAK kinase assay (JAK-3), time-resolved fluorescence energy transfer or radiometric filter-binding/flash plate; type: biochemical; conditions: GST fusion of JAK-3 kinase domain (JH-1)
T1 construct: contain the kinase domain (JH-1 domain) of the full length proteins and are used as GST fusion proteins
Procedure: (§1) JAK-2 or JAK-3 enzymatic activity is determined using a time-resolved fluorescence energy transfer technology. The phosphorylation of a synthetic biotinylated peptide substrate (GGEEEYFELVKKKK) by either JAK-2 or JAK-3 in the presence of ATP is quantified using Europium labeled anti phosphotyrosine antibody and Streptavidin-Allophycocyanin Both JAK-2 and JAK-3 enzymes used in these assays contain the kinase domain (JH-1 domain) of the full length proteins and are used as GST fusion proteins.
(§2) Inhibitors are dissolved in DMSO. Dilutions are prepared in 90% DMSO followed by additional dilutions steps as required to perform a 8-point concentration-response.
(§3) The reaction mix consists of 5 μL of diluted compound, 10 μl of assay buffer and 5 μl of enzyme dilution. After incubation for 60 minutes at room temperature the reaction is stopped by the addition of EDTA. For detection of the product anti-phosphotyrosine antibody and Streptavidin-APC are added and after 60 minutes the samples are measured in an EnVision 2102 Multilabel Reader with excitation wavelength of 320 nm and emission at 665 nm. […] Membranes are counted after drying at ambient temperature, mounting in Packard TopCount 96-well frame, and addition of 10 μl/well of Microscint. The plates are eventually sealed and counted in a microplate scintillation counter (TopCount NXT, TopCount NXT HTS, PerkinElmer, Brussels, Belgium).

JAK-2 = target: T2, JAK-2 (Homo sapiens, UniProt O60674); assay: JAK kinase assay (JAK-2), time-resolved fluorescence energy transfer or radiometric filter-binding/flash plate; type: biochemical; conditions: GST fusion of JAK-2 kinase domain (JH-1)
T2 construct: contain the kinase domain (JH-1 domain) of the full length proteins and are used as GST fusion proteins
Procedure: as §1, §2, §3

T1 sequence (P52333 822-1111 limits assumed, species assumed): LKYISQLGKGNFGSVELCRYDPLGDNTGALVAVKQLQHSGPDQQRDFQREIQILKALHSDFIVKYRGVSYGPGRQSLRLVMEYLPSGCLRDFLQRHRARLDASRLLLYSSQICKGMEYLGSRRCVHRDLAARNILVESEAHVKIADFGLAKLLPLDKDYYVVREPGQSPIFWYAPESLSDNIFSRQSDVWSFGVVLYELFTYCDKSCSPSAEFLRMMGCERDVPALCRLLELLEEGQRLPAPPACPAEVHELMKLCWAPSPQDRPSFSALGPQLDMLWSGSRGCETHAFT
T2 sequence (O60674 849-1124 limits assumed, species assumed): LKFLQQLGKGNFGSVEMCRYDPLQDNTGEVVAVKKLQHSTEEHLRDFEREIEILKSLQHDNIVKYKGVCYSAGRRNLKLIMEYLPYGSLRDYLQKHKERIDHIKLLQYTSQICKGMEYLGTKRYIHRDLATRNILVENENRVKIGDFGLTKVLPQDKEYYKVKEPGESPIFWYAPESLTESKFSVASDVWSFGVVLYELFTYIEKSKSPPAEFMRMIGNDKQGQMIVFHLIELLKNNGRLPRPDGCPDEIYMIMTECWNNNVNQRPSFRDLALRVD

| Compound | IC50 (JAK-3) | IC50 (JAK-2) |
| --- | --- | --- |
| COc1ccc(F)c(Nc2ncc(C(N)=O)c(Nc3ccccc3N(C)S(C)(=O)=O)n2)c1 [Example 6, 2-(2-Fluoro-5-methoxy-phenylamino)-4-[2-(methanesulfonyl-methyl-amino)-phenylamino]-pyrimidine-5-carboxylic acid amide] | 0.026 µM | – |
| CNS(=O)(=O)c1ccccc1Nc1nc(Nc2cc(OC)ccc2F)ncc1C(N)=O [Example 5, 2-(2-Fluoro-5-methoxy-phenylamino)-4-(2-methylsulfamoyl-phenylamino)-pyrimidine-5-carboxylic acid amide] | – | 0.179 µM |
